Assay results: US12600704B2, “Substituted 1,2,4-triazoles and methods of use” (STINGINN LLC, priority 2019, dated 2026)

What was measured:
hTERT cells = experiment: ELISA of type I IFN and cytokines in hTERT cells; type: cell-based, human
Description: (§1) Example 2: Examining Agonists of STING. Compounds of the present invention were examined for its ability to activate the type I interferon (IFN) promoter, using a live cell assay. This assay comprised immortalized human fibroblasts (hTERT) that were stably transfected with the type I IFN promoter driving luciferase as well as the CMV promoter driving SEAP (hTERT-pIFNβ-Glu). The live cell assay was developed by the Barber lab and has been patented. The ability of the small molecules to activate the type I IFN promoter and the transcription of luciferase, but not SEAP was assessed. This is since the activation of STING, typically by CDNs, in turn activates the transcription factors NF-κB and IRF3, both of which are required to induce the transcriptional stimulation of the Type I IFN promoter, but not the CMV promoter (IRF3 and NF-κB transcription factor binding sites are not contained in the CMV promoter). Thus, activation of STING by a small molecule identified in the first screen (HTS), results in the level of luciferase increasing relative to SEAP production. […] To confirm this, Compound 28 was administered onto normal hTERT cells and the production of Type I IFN measured using ELISA (FIG. 1C). […] Thus, Compound 28 is a more robust activator of STING compared to CDNs.
Example 10: Interferon β ELISA analysis. […]

[1] = tested on: type I IFN promoter (IFNβ promoter) in hTERT-pIFNβ-Glu cells; experiment: Live cell assay: type I IFN promoter driving luciferase (CMV promoter driving SEAP) in hTERT-pIFNβ-Glu cells; type: cell-based, human
Description: Compounds of the present invention were examined for their ability to activate the type I interferon (IFN) promoter, using a live cell assay. This assay comprised immortalized human fibroblasts (hTERT) that were stably transfected with the type I IFN promoter driving luciferase as well as the CMV promoter driving SEAP (hTERT-pIFNβ-Glu), as described in PCT Application No. PCT/US2019/025380, inventor Glen N. Barber, published as WO2019195285, which is herein incorporated by reference in its entirety and for all purposes. The ability of the small molecules to activate the type I IFN promoter and the transcription of luciferase, but not SEAP was assessed. […]
Solubility was determined using proprietary software, e.g., https://www.researchgate.net/publication/12055195_Internet_Software_for_the_Calculation_of_the_Lipophilicity_and_Aqueous_Solubility_of_Chemical_Compounds, last visited Dec. […]
Example 2: Examining Agonists of STING. […] The ability of the small molecules to activate the type I IFN promoter and the transcription of luciferase, but not SEAP was assessed. […] To confirm this, Compound 28 was administered onto normal hTERT cells and the production of Type I IFN measured using ELISA (FIG. 1C). […]

STING [2] = experiment: Immunofluorescence of STING trafficking and IRF3/NF-κB nuclear localization in hTERT cells; type: cell-based, human
Description: Example 2: Examining Agonists of STING. Compounds of the present invention were examined for its ability to activate the type I interferon (IFN) promoter, using a live cell assay. This assay comprised immortalized human fibroblasts (hTERT) that were stably transfected with the type I IFN promoter driving luciferase as well as the CMV promoter driving SEAP (hTERT-pIFNβ-Glu). The live cell assay was developed by the Barber lab and has been patented. The ability of the small molecules to activate the type I IFN promoter and the transcription of luciferase, but not SEAP was assessed. This is since the activation of STING, typically by CDNs, in turn activates the transcription factors NF-κB and IRF3, both of which are required to induce the transcriptional stimulation of the Type I IFN promoter, but not the CMV promoter (IRF3 and NF-κB transcription factor binding sites are not contained in the CMV promoter). […] To confirm this, Compound 28 was administered onto normal hTERT cells and the production of Type I IFN measured using ELISA (FIG. 1C). […]
Example 11: Immunofluorescence microscopy. […] Immunostaining was performed with rabbit-anti-STING polyclonal, rabbit-anti-IRF3 (Santa Cruz Biotechnology) or rabbit-anti-p65 (Cell Signaling) followed by fluorescence conjugated secondary antibodies (FITC-goat-anti-rabbit) (Invitrogen). […]

STING [3] = experiment: Type I IFN production in hTERT cells lacking STING (RNAi); type: cell-based, human; settings: STING RNAi vs control RNAi
Description: as §1

[4] = molecular target: T1, STING (amino acids 152-379, STING152-379H) (Homo sapiens, UniProt Q86WV6); experiment: Thermal shift assay (TSA) binding screen with purified STING152-379H
T1 construct: made in house; host or cells: E. coli BL21 DE3 RIPL Codon Plus
Description: Example 1: Identification of small molecule activators of STING. An assay was designed to identify small compounds that bound to STING. To achieve this, the carboxyl terminal region of STING (amino acids 152-379) fused to a histidine tag was expressed in bacteria as described in materials and methods. Soluble STING dimers were purified over a nickel affinity column and enriched further using gel filtration. Purified STING was used in a thermal shift assay (TSA) to isolate small molecules that bound to STING. A thermal shift assay quantifies the change in the thermal denaturation temperature of a protein. […] Once this was established, purified STING (5 μl; 1 μM) was mixed with 2.5 μl DMSO and compound (1% DMSO final with 2.5% SYPRO orange. The total reaction mixture was 10 μl in […] HEPES and 100 mM NaCl. SYPRO Orange binds nonspecifically to hydrophobic surfaces. When the protein unfolds, the exposed hydrophobic surfaces bind the dye, resulting in an increase in fluorescence by excluding water. The stability curve and its midpoint value (melting temperature, Tm also known as the temperature of hydrophobic exposure, Th) was obtained by gradually increasing the temperature to unfold the protein and measuring the fluorescence at each point. Curves were measured for STING only and STING+small molecule, and ΔTm was calculated. […]

[5] = tested on: STING dependent TBK1 and IRF3 phosphorylation; experiment: Immunoblot of TBK1/IRF3 phosphorylation in hTERT cells
Description: Equal amounts of proteins were resolved on sodium dodecyl sulfate (SDS)-Polyacrylamide gels and then transferred to polyvinylidene fluoride (PVDF) membranes (Millipore). After blocking with 5% Blocking Reagent, membranes were incubated with various primary antibodies (and appropriate secondary antibodies). The image was resolved using an enhanced chemiluminescence system ECL (Thermo Scientific) and detected by autoradiography (Kodak).

T1 sequence (Q86WV6 with tags, fused parts or gaps): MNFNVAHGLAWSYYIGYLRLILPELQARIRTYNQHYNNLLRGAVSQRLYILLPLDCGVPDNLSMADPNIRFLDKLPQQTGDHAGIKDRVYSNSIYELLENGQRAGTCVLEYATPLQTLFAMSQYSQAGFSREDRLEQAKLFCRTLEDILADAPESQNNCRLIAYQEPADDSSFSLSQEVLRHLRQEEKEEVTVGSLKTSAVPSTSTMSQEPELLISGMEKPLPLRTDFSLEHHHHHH

Compound | Production of type I IFN (hTERT cells; human fibroblasts (hTERT)) | Activation of the type I IFN promoter (luciferase but not SEAP) [1] | fold induction at 50 µM ([1]; Homo sapiens, 50 μM, 0.5% DMSO, luciferase, approx. 24 h (FIGS. 2A-C) or approx. 12 h (FIGS. 3A-B), read-out: Activity (Fold changes of IFNβ promoter activity at 50 μM)) | Production of cytokines IL6, IL8 and MCP-1 (hTERT cells; hTERT cells) | STING trafficking and IRF3/NF-κB activation and nuclear localization (STING [2]) | Duration of STING activation (STING [2]; STING trafficking, nuclear localization of NF-κB and IRF3) | Type I IFN production in hTERT cells lacking STING (STING [3]) | Binding to STING [4] | Activation/phosphorylation of TBK1 (and IRF3) [5]
2-((5-(4-ethylphenyl)-4H-1,2,4-triazol-3-yl)thio)-1-phenylpropan-1-one [Compound 28] | induce the production of type I IFN and other cytokines |  |  |  |  |  |  |  | 
CCc1ccc(-c2nnc(SC(C)C(=O)c3ccccc3)[nH]2)cc1 (stereo not drawn) [Compound 28, 2-((5-(4-ethylphenyl)-4H-1,2,4-triazol-3-yl)thio)-1-phenylpropan-1-one] |  | exhibited the ability to activate the type I IFN promoter in hTERT-pIFNβ-Glu and induce the expression of luciferase but not SEAP | 8 | the production of cytokines IL6, IL8 and MCP-1 | induces STING trafficking and IRF3/NF-κB activation and nuclear localization in hTERT cells | over 24 hours | unable to produce type I IFN | can bind to and specifically activate STING signaling | able to activate TBK-1
